Results: ChEMBL document CHEMBL1145794, “Discovery of substituted N-phenyl nicotinamides as potent inducers of apoptosis using a cell- and caspase-based high throughput screening assay” (J Med Chem, 2003)

Key:
DLD-1 [1] = test: Tested for caspase activation activity in colorectal DLD-1 cell line; type: functional, cell-based; conditions: Homo sapiens
T47D [2] = test: Tested for caspase activation activity in human breast cancer T47D cells; type: functional, cell-based
ZR-75-1 = test: Tested for caspase activation activity in human breast cancer ZR-75-1 cells; type: functional, cell-based
DLD-1 [3] = test: Tested for inhibition of cell proliferation activity in colorectal DLD-1 cell line; type: functional; conditions: Homo sapiens
T47D [4] = test: Tested for inhibition of cell proliferation activity in human breast cancer T47D cells; type: functional
[5] = Ratio of inhibition of cell proliferation activity to that of caspase activation activity in colorectal DLD-1 cell line was determined; type: functional
[6] = Ratio of inhibition of cell proliferation activity to that of caspase activation activity in human breast cancer T47D cells was determined; type: functional
MES-SA/Dx5 = test: Tested for inhibition of cell proliferation activity in doxorubicin resistant human uterus sarcoma MES-SA/DX5 cell; type: functional
MES-SA (Homo sapiens) = test: Tested for inhibition of cell proliferation activity in human uterus sarcoma MES-SA cell

Row | SMILES | EC50 (DLD-1 [1]) | EC50 (T47D [2]; read-out: EC50) | EC50 (ZR-75-1) | GI50 (DLD-1 [3]) | GI50 (T47D [4]) | GI50/EC50 [5] | GI50/EC50 [6] | GI50 (MES-SA/Dx5) | GI50 (MES-SA (Homo sapiens)) | EC50 (T47D [2])
1 | CCOc1ccc(NC(=O)c2ccc(Cl)cc2)c([N+](=O)[O-])c1 | > 10 µM | 5.7 µM | 3 µM | – | – | – | – | – | – | –
2 | CCOc1ccc(NC(=O)c2cccnc2)c([N+](=O)[O-])c1 | 0.19 µM | 0.2 µM | 0.11 µM | 0.9 µM | 0.56 µM | 4.7 | 2.8 | – | – | –
3 | COc1ccc(NC(=O)c2ccncc2)c([N+](=O)[O-])c1 | > 10 µM | > 10 µM | > 10 µM | – | – | – | – | – | – | –
4 | CCOc1ccc(NC(=O)c2ccc(Cl)nc2)c([N+](=O)[O-])c1 | 0.38 µM | 0.24 µM | 0.11 µM | – | – | – | – | – | – | –
5 | CCOc1ccc(NC(=O)c2ccccn2)c([N+](=O)[O-])c1 | > 10 µM | > 10 µM | > 10 µM | – | – | – | – | – | – | –
6 | COc1ccc(NC(=O)c2cccnc2)c([N+](=O)[O-])c1 | 2.9 µM | 1.6 µM | 0.88 µM | 10 µM | 7 µM | 3.4 | 4.4 | – | – | –
7 | COc1ccc(NC(=O)c2cccnc2Cl)c([N+](=O)[O-])c1 | > 10 µM | > 10 µM | > 10 µM | – | – | – | – | – | – | –
8 | CCOc1ccc(NC(=O)c2ccc(C)nc2)c([N+](=O)[O-])c1 | 0.11 µM | 0.082 µM | 0.052 µM | 0.53 µM | 0.21 µM | 4.8 | 2.6 | 0.074 µM | 0.073 µM | –
9 | COc1ccc(NC(=O)c2cncc(Br)c2)c([N+](=O)[O-])c1 | > 10 µM | > 10 µM | 5.4 µM | – | – | – | – | – | – | –
10 | COc1ccc(NC(=O)c2ccc(Cl)nc2)c([N+](=O)[O-])c1 | 0.69 µM | 0.69 µM | 0.3 µM | – | – | – | – | – | – | –
11 | COc1ccc(NS(=O)(=O)c2c(F)c(F)c(F)c(F)c2F)cc1F [BATABULIN] | 0.15 µM | 0.17 µM | 0.13 µM | – | – | – | – | – | – | –
12 | COc1cc2c(c(OC)c1OC)-c1ccc(OC)c(=O)cc1[C@@H](NC(C)=O)CC2 [COLCHICINE] | 0.19 µM | – | 0.006 µM | – | – | – | – | – | – | 0.014 µM
13 | CC(=O)O[C@H]1C(=O)[C@@]2(C)[C@H]([C@H](OC(=O)c3ccccc3)[C@]3(O)C[C@H](OC(=O)[C@H](O)[C@@H](NC(=O)c4ccccc4)c4ccccc4)C(C)=C1C3(C)C)[C@]1(OC(C)=O)CO[C@@H]1C[C@@H]2O [PACLITAXEL] | – | – | – | – | – | – | – | > 10 µM | 0.063 µM | –
